# In patent US9637469B2, “Pyridine derivative” (Teijin Pharma Limited, priority 2012, dated 2017):
# pIC50: −log10 of the molar value.
# Target: T1, human URAT1 (Homo sapiens, UniProt Q96S37)
# T1 construct: Full-length cDNA of human URAT1 (hURAT1)
# T1 sequence (Q96S37 1-553): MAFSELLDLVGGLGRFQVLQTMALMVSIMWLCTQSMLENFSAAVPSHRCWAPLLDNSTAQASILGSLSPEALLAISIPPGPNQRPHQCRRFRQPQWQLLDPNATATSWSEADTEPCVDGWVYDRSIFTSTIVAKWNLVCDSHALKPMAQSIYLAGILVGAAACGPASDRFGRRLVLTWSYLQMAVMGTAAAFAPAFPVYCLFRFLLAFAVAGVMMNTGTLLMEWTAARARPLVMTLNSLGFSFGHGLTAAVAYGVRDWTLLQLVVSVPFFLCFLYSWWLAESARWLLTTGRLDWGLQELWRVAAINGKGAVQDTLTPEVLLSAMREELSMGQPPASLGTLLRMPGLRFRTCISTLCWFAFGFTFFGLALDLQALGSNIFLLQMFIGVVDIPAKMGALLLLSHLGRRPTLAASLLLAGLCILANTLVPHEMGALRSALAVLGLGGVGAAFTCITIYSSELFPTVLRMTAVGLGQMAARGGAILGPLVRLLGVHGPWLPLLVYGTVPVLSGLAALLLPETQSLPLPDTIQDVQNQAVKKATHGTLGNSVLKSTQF
# Assay: Test for inhibition of uric acid transport using human URAT1-expressing cells;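 further: three stars up to 0.2 µM two stars 0.2-2 µM one star 2-20 µM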
# Format: cell-based
# Details: HEK 293 cells expressing human URAT1; 14C-labeled uric acid 25 μM; uptake 37° C. for 5 min
# Experimental: (1) Preparation of the Test Compound
# The test compound was dissolved in DMSO (produced by Sigma) to a concentration of 20 mM and was subsequently used by diluting to desired concentrations.
# (2) Test for Inhibition of Uric Acid Transport Using Human URAT1-Expressing Cells;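 further: three stars up to 0.2 µM two stars 0.2-2 µM one star 2-20 µM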
# Full-length cDNA of human URAT1 (hURAT1) (produced by OriGene Technologies, Inc., NCBI Reference Sequence: NM 144585) was subcloned into an expression vector, pCMV6-Kan/Neo (produced by OriGene Technologies, Inc.), and hURAT1 gene was transfected into human embryonic kidney-derived cells (HEK 293 cells) by liposome method using Lipofectamine 2000 (produced by Invitrogen Corporation), whereupon HEK 293 cells expressing human URAT1 gene were screened by its Geneticin resistance. By a method similar to the following method, functional expression of human URAT1 gene was confirmed by using transport of ^14C-labeled uric acid into the cells as an index.
# The HEK 293 cells expressing human URAT1 were seeded in a 24-well cell culture dish to a density of 3×10^5 cells/mL/well and were cultured in Dulbecco's modified Eagle's medium (D-MEM medium) containing 10% fetal bovine serum at 37° C. for 2 days. Thereafter, the following test for inhibition of uric acid transport was performed.
# After the medium was removed by aspiration from each well, the medium was replaced with a solution obtained by substituting NaCl in Hank's Balanced Salt Solution (HBSS) with Na gluconate (hereinafter, HBSS/Na-gluconate) and the cells were preincubated at 37° C. for about 10 minutes. HBSS/Na-gluconate was removed by aspiration and a ^14C-uric acid solution that was warmed at 37° C. in advance containing various concentrations of the Example compound described in (1) and a radioactive ligand (^14C-labeled uric acid; final concentration 25 μM) was added and an uptake reaction was carried out by incubating at 37° C. for 5 min. After the incubation, ^14C-labeled uric acid solution was removed by aspiration and the cells were washed three times with ice-cold HBSS. The HEK 293 cells expressing human URAT1 were lysed in 0.2 mol/L aqueous NaOH (hereafter, the cell sample) and the cell samples were collected. The cell sample and a liquid scintillation liquid, ULTIMA GOLD (produced by PerkinElmer, Inc.) were mixed and the radioactivity was measured by a liquid scintillation counter (Beckman Coulter, Inc.).
# The uric acid transport rate of the Example compound at each concentration (% of control uptake) was calculated relative to the radioactivity (radioactivity in human URAT1 expressing HEK 293 cells without addition of the Example compound (DMSO addition)) showing URAT1-specific uric acid transport as 100%, and the concentration (IC50) of the Example compound at which the uric acid transport rate is inhibited by 50% was determined. In addition, the symbols (*, **, and ***) in the table represent the following inhibitory activity values: • IC50≦_ 0.2 μM: *** • 0.2 μM<IC50≦2 μM: ** • 2 μM<IC50≦20 μM: *
row,Inhibitory Activity (IC50 of uric acid transport inhibition),SMILES
1,* * *,"CCCN1CCN(Cc2nc(-c3cncc(Cl)c3)n(Cc3cc(Cl)ccc3Cl)c2C(=O)O)CC1 [Compound A202, 2-(5-chloropyridin-3-yl)-1-(2,5-dichlorobenzyl)-4-((4-propylpiperazin-1-yl)methyl)-1H-imidazole-5-carboxylic acid]"
2,* * *,"CCC(O)(CC)c1nc(-c2cncc(F)c2)n(Cc2cc(Cl)ccc2Cl)c1C(=O)O [Compound A215, 1-(2,5-dichlorobenzyl)-2-(5-fluoropyridin-3-yl)-4-(3-hydroxypentan-3-yl)-1H-imidazole-5-carboxylic acid]"
3,* *,"CS(=O)(=O)N1CCN(Cc2nc(-c3cncc(Cl)c3)n(Cc3cc(Cl)ccc3Cl)c2C(=O)O)CC1 [Compound A203, 2-(5-chloropyridin-3-yl)-1-(2,5-dichlorobenzyl)-4-((4-(methylsulfonyl)piperazin-1-yl)methyl)-1H-imidazole-5-carboxylic acid]"
4,* * *,"C#Cc1nc(-c2cncc(Cl)c2)n(Cc2cc(Cl)ccc2Cl)c1C(=O)O [Compound A209, 2-(5-chloropyridin-3-yl)-1-(2,5-dichlorobenzyl)-4-ethynyl-1H-imidazole-5-carboxylic acid]"
5,* *,"COc1cccc(-c2nc(C)c(C(=O)O)n2Cc2cc(Cl)ccc2Cl)n1 [Compound A246, 1-(2,5-dichlorobenzyl)-2-(6-methoxypyridin-2-yl)-4-methyl-1H-imidazole-5-carboxylic acid]"
6,* * *,"O=C(O)c1c(Cn2cccn2)nc(-c2cncc(Cl)c2)n1Cc1cc(Cl)ccc1Cl [Compound A200, 4-((1H-pyrazol-1-yl)methyl)-2-(5-chloropyridin-3-yl)-1-(2,5-dichlorobenzyl)-1H-imidazole-5-carboxylic acid]"
7,* * *,"Cc1cncc(Oc2nc(C)c(C(=O)O)n2Cc2cc(Cl)ccc2Cl)c1 [Compound A255, 1-(2,5-dichlorobenzyl)-4-methyl-2-((5-methylpyridin-3-yl)oxy)-1H-imidazole-5-carboxylic acid]"
8,* * *,"Cc1ccncc1Oc1nc(C)c(C(=O)O)n1Cc1cc(Cl)ccc1Cl [Compound A256, 1-(2,5-dichlorobenzyl)-4-methyl-2-((4-methylpyridin-3-yl)oxy)-1H-imidazole-5-carboxylic acid]"
9,* * *,"O=C1OCc2nc(-c3cncc(Cl)c3)n(Cc3cc(Cl)ccc3Cl)c21 [Compound A221, 2-(5-chloropyridin-3-yl)-1-(2,5-dichlorobenzyl)-1H-furo[3,4-d]imidazol-6(4H)-one]"

# Continued, compound first:
row,SMILES,Inhibitory Activity (IC50 of uric acid transport inhibition)
1,"O=C(O)c1cnc(-c2cncc(F)c2)n1Cc1cc(Cl)ccc1Cl [Compound A171, 1-(2,5-dichlorobenzyl)-2-(5-fluoropyridin-3-yl)-1H-imidazole-5-carboxylic acid]",* * *
2,"CN(C)Cc1nc(-c2cncc(Cl)c2)n(Cc2cc(Cl)ccc2Cl)c1C(=O)O [Compound A192, 2-(5-chloropyridin-3-yl)-1-(2,5-dichlorobenzyl)-4-((dimethylamino)methyl)-1H-imidazole-5-carboxylic acid]",* *
3,"Cc1nc(-c2ccc(Cl)nc2)n(Cc2cc(Cl)ccc2Cl)c1C(=O)O [Compound A164, 2-(6-chloropyridin-3-yl)-1-(2,5-dichlorobenzyl)-4-methyl-1H-imidazole-5-carboxylic acid]",* *
4,"CC(C)c1nc(-c2cccnc2)n(Cc2cccc3ccccc23)c1C(=O)O [Compound A24, 4-isopropyl-1-(naphthalen-1-ylmethyl)-2-(pyridin-3-yl)-1H-imidazole-5-carboxylic acid]",* *
5,"CS(=O)(=O)NC(=O)c1c(C2CC2)nc(-c2cccnc2)n1Cc1cccc2ccsc12 [Compound A117, 1-(benzo[b]thiophen-7-ylmethyl)-4-cyclopropyl-N-(methylsulfonyl)-2-(pyridin-3-yl)-1H-imidazole-5-carboxamide]",* *
6,"Cc1ccc(-c2nc(C)c(C(=O)O)n2Cc2cc(Cl)ccc2Cl)cn1 [Compound A159, 1-(2,5-dichlorobenzyl)-4-methyl-2-(6-methylpyridin-3-yl)-1H-imidazole-5-carboxylic acid]",* *
7,"CCc1nc(-c2cncc(F)c2)n(Cc2cc(Cl)ccc2Cl)c1C(=O)O [Compound A150, 1-(2,5-dichlorobenzyl)-4-ethyl-2-(5-fluoropyridin-3-yl)-1H-imidazole-5-carboxylic acid]",* * *
8,"O=C(O)c1c(Cn2ccnc2)nc(-c2cncc(Cl)c2)n1Cc1cc(Cl)ccc1Cl [Compound A199, 4-((1H-imidazol-1-yl)methyl)-2-(5-chloropyridin-3-yl)-1-(2,5-dichlorobenzyl)-1H-imidazole-5-carboxylic acid]",* *
9,"CSc1cncc(-c2nc(C)c(C(=O)O)n2Cc2cc(Cl)ccc2Cl)c1 [Compound A182, 1-(2,5-dichlorobenzyl)-4-methyl-2-(5-(methylthio)pyridin-3-yl)-1H-imidazole-5-carboxylic acid]",* * *
10,"O=C(O)c1c(Oc2ccc(F)cc2)nc(-c2cccnc2)n1Cc1cc(Cl)ccc1Cl [Compound A100, 1-(2,5-dichlorobenzyl)-4-(4-fluorophenoxy)-2-(pyridin-3-yl)-1H-imidazole-5-carboxylic acid]",* * *
11,"O=C(O)c1cnc(-c2cccnc2)n1Cc1cc(Cl)ccc1Cl [Compound A45, 1-(2,5-dichlorobenzyl)-2-(pyridin-3-yl)-1H-imidazole-5-carboxylic acid]",* * *
12,"Cc1nc(-c2cncc(Cl)c2)n(Cc2csc3ccccc23)c1C(=O)O [Compound A132, 1-(benzo[b]thiophen-3-ylmethyl)-2-(5-chloropyridin-3-yl)-4-methyl-1H-imidazole-5-carboxylic acid]",* *
13,"CCc1cncc(-c2nc(C)c(C(=O)O)n2Cc2cc(Cl)ccc2Cl)c1 [Compound A181, 1-(2,5-dichlorobenzyl)-2-(5-ethylpyridin-3-yl)-4-methyl-1H-imidazole-5-carboxylic acid]",* * *

# Same assay, conditions: HEK 293 cells expressing human URAT1; 14C-labeled uric acid 25 μM; uptake 37° C. for 5 min; read-out: Inhibitory Activity (IC50 of uric acid transport inhibition)
row,pIC50,SMILES
1,4.70 to 5.70,Cc1nc(-c2cccnc2)n(Cc2ccccc2C(F)(F)F)c1C(=O)O [Compound A60]
2,4.70 to 5.70,Cc1nc(-c2cccnc2)n(Cc2ccccc2OC(F)(F)F)c1C(=O)O [Compound A62]
3,4.70 to 5.70,Cc1nc(-c2cccnc2)n(Cc2c(F)cccc2Cl)c1C(=O)O [Compound A72]
4,4.70 to 5.70,Cc1nc(-c2cccnc2)n(Cc2ccc(Cl)cc2)c1C(=O)O [Compound A53]
5,4.70 to 5.70,Cc1nc(-c2cccnc2)n(Cc2ccccc2Cl)c1C(=O)O [Compound A51]

row,SMILES,pIC50
1,Cc1nc(-c2cccnc2)n(C(C)c2cc(Cl)ccc2Cl)c1C(=O)O (stereo not shown) [Compound A87],4.70 to 5.70
